Read-outs that look alike come from different tables or passages of the source.
Key:
[1] = 4-week toxicity study in cynomolgus monkeys; format: in vivo
From the text: On Day 29, surviving TS animals (all animals in study) were euthanized and subjected to a full gross necropsy, which included a macroscopic examination of the external surface of the body, all orifices, cranial cavity, external surface of the brain, the thoracic, abdominal and pelvic cavities and their viscera, cervical areas, carcass and genitalia. Organs were weighed as soon as possible from all main study animals at the scheduled necropsies. Tissues from animals at the terminal sacrifice, from animals found dead or moribund-sacrificed, and gross lesions from all animals, were embedded in paraffin, sectioned, stained with hematoxylin and eosin and examined microscopically by a board certified veterinary pathologist.

[2] = Phase 1 multiple ascending dose study, plasma pharmacokinetics in healthy adult males; format: in vivo; settings: male, human, oral, fasted
From the text: An additional 6 subjects received placebo.
Accumulation were approximately 1.3 to 1.4 fold for C. and 1.4 to 1.5 fold for AUC0.24 (Table 12 and FIG. 8).

[3] = molecular target: T1, human URAT1 uptake transporter (Homo sapiens, UniProt Q96S37); experiment: Inhibition of URAT1 mediated uric acid uptake in MDCKII cells stably expressing human URAT1; format: cell-based
T1 construct: expressed in transfected cells
T1 sequence (Q96S37 1-553): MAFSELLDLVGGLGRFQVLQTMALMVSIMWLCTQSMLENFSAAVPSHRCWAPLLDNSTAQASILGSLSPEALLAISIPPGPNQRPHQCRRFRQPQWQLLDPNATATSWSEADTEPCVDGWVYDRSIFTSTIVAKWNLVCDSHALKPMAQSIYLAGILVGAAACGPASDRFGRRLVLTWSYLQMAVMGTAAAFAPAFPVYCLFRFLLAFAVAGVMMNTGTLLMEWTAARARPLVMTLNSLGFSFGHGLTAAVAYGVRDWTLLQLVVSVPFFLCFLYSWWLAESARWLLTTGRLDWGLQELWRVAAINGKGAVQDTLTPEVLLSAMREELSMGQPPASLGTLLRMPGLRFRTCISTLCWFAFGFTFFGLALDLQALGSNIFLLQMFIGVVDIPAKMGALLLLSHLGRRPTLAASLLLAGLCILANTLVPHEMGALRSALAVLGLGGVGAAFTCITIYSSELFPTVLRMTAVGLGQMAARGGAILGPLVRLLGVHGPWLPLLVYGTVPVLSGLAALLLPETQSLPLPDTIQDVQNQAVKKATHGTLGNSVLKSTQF
Method: Uptake experiments were performed using MDCKII cells stably expressing the human URAT1 uptake transporter. Cells were cultured at 37±1° C. in an atmosphere of 95:5 air:CO2 and were plated onto standard 96-well tissue culture plates at the cell number described in Table 1.
Radiolabeled probe substrate transport was determined by measuring an aliquot (35 μL) from each well for liquid scintillation counting.

[4] = Solubility of test articles in HBSS assay buffer; settings: all tested concentrations, highest 10 μM
Method: Before the experiment, the medium was removed and the cells were washed twice with 100 μL of HBSS without Cl^−. Uptake experiments were carried out at 37±1° C. in 50 μL of HBSS without Cl^−, pH 7.4 containing the probe substrate (20 μM uric acid) and the test article (TA) or solvent.

[5] = tested on: urine albumin-to-creatinine ratio (UACR); experiment: Renal function safety pharmacology study in rats, single oral dose (urine albumin, creatinine, UACR); format: in vivo, Sprague Dawley Rats
Method: Cageside and detailed clinical observations, body weights, water consumption, blood clinical chemistry, urine chemistry, and urinalysis were performed. Osmolality, osmolality gap, urine volume, water intake rate, fluid balance, urinary excretion, renal creatinine clearance, renal clearance, free water clearance, and fractional electrolyte clearance were calculated and evaluated. All animals were euthanized on Day 2 after scheduled observations. Blood samples for clinical chemistry analysis were collected from all the animals at 24 hours post dose prior to each scheduled euthanasia. Urine samples for clinical chemistry and urinalysis were collected from all the animals at pre-dose (˜24 hours) and 0-6 hours and 6-24 hours post-dose.

[6] = cynomolgus monkeys, oral 10, 30 and 150 mg/kg/day, 28 days
[7] = female rats, 5 mg/kg single oral, urine 0-6 h post dose
[8] = female rats, 5 mg/kg single oral, urine 6-24 h post dose
[9] = female rats, 15 mg/kg single oral, urine 0-6 h post dose
[10] = female rats, 15 mg/kg single oral, urine 6-24 h post dose
[11] = female rats, 50 mg/kg single oral, urine 0-6 h post dose
[12] = female rats, 50 mg/kg single oral, urine 6-24 h post dose
[13] = male rats, 10 mg/kg single oral, urine 0-6 h post dose
[14] = male rats, 10 mg/kg single oral, urine 6-24 h post dose
[15] = male rats, 30 mg/kg single oral, urine 0-6 h post dose
[16] = male rats, 30 mg/kg single oral, urine 6-24 h post dose
[17] = male rats, 100 mg/kg single oral, urine 0-6 h post dose
[18] = male rats, 100 mg/kg single oral, urine 6-24 h post dose

In the case of `[2H]c1c([2H])c([2H])c2c(C(=O)c3cc(Br)c(O)c(Br)c3)c(C(C)O)oc2c1[2H]` (racemic) [Compound 1, (3,5-dibromo-4-hydroxyphenyl)(2-(1-hydroxyethyl)benzofuran-3-yl-4,5,6,7-d4)methanone], the “NOAEL, human equivalent” value ([1]; cynomolgus monkey, in vivo) is reported as 600 mg, the NOAEL at 28 days ([1]; cynomolgus monkey, in vivo, po) is reported as 30 mg/kg and the “findings after 4 week recovery period” value ([1]; cynomolgus monkeys, 28 days oral then 4 week recovery) is reported as “No finding”. The liver weight ([1]; cynomolgus monkeys, male, 150 mg/kg/day, 28 days) was “trended higher in male at 150 mg/kg/day, but no statistical difference”, the clinical signs [1, 6] was “No abnormal clinical signs” and the “effect on food consumption, body weight” value [1, 6] was “no effect”. The mortality [1, 6] was “No mortality”, the Cmax ([2]; 25 mg, 25 mg once daily, Day 1) was 1760 ng/mL and the AUC(0-t) ([2]; 25 mg, 25 mg once daily, Day 1, read-out: AUC0-24) was 21200 ng·h/mL. For the same compound, the Tmax ([2]; 25 mg, 25 mg once daily, Day 1, read-out: Tmax (median)) was 3.5 h, the Cmax ([2]; 25 mg, 25 mg once daily, Day 10) was 2480 ng/mL and the AUC(0-t) ([2]; 25 mg, 25 mg once daily, Day 10, read-out: AUC0-24) was 30800 ng·h/mL. It also gave a Tmax ([2]; 25 mg, 25 mg once daily, Day 10, read-out: Tmax (median)) of 2.25 h, a Cmax ([2]; 50 mg, 50 mg once daily, Day 1) of 3550 ng/mL and an AUC(0-t) ([2]; 50 mg, 50 mg once daily, Day 1, read-out: AUC0-24) of 39600 ng·h/mL. The Tmax ([2]; 50 mg, 50 mg once daily, Day 1, read-out: Tmax (median)) was 2 h, the Cmax ([2]; 50 mg, 50 mg once daily, Day 10) was 4590 ng/mL and the AUC(0-t) ([2]; 50 mg, 50 mg once daily, Day 10, read-out: AUC0-24) was 58200 ng·h/mL. For the same compound, the Tmax ([2]; 50 mg, 50 mg once daily, Day 10, read-out: Tmax (median)) was 2.5 h, the Cmax ([2]; 75 mg, 75 mg once daily, Day 1) was 5200 ng/mL and the AUC(0-t) ([2]; 75 mg, 75 mg once daily, Day 1, read-out: AUC0-24) was 55600 ng·h/mL. For the same compound, the Tmax ([2]; 75 mg, 75 mg once daily, Day 1, read-out: Tmax (median)) was 1.75 h, the Cmax ([2]; 75 mg, 75 mg once daily, Day 10) was 6770 ng/mL and the AUC(0-t) ([2]; 75 mg, 75 mg once daily, Day 10, read-out: AUC0-24) was 84700 ng·h/mL. The Tmax ([2]; 75 mg, 75 mg once daily, Day 10, read-out: Tmax (median)) was 1.5 h, the “in vitro URAT1 potency compared with benzbromarone” value [3] was “better in vitro URAT1 potency than benzbromarone” and the “solubility in HBSS buffer” value [4] was “soluble”. The “% UACR change vs Ctrl” value [5, 7] was 140%, the “% UACR change vs baseline” value [5, 7] was 73% and the UACR [5, 7] was 102.7 mg/g. For the same compound, the UALB [5, 7] was 33.71 mg/L, the UCRE [5, 7] was 0.328 g/L and the “% UACR change vs Ctrl” value [5, 8] was 19%. For the same compound, the “% UACR change vs baseline” value [5, 8] was 44%, the UACR [5, 8] was 40.3 mg/g and the UALB [5, 8] was 24.2 mg/L. The UCRE [5, 8] was 0.600 g/L, the “% UACR change vs Ctrl” value [5, 9] was −53% and the “% UACR change vs baseline” value [5, 9] was −6%. It also gave a UACR [5, 9] of 17.5 mg/g, a UALB [5, 9] of 5.22 mg/L and a UCRE [5, 9] of 0.298 g/L. For the same compound, the “% UACR change vs Ctrl” value [5, 10] was −41%, the “% UACR change vs baseline” value [5, 10] was 9% and the UACR [5, 10] was 20.1 mg/g. The UALB [5, 10] was 11.93 mg/L, the UCRE [5, 10] was 0.593 g/L and the “% UACR change vs Ctrl” value [5, 11] was −38%. The “% UACR change vs baseline” value [5, 11] was −23%, the UACR [5, 11] was 23.4 mg/g and the UALB [5, 11] was 9.58 mg/L. The UCRE [5, 11] was 0.409 g/L, the “% UACR change vs Ctrl” value [5, 12] was −21% and the “% UACR change vs baseline” value [5, 12] was −7%. The UACR [5, 12] was 26.8 mg/g, the UALB [5, 12] was 21.15 mg/L and the UCRE [5, 12] was 0.790 g/L. The “% UACR change vs Ctrl” value [5, 13] was −62%, the “% UACR change vs baseline” value [5, 13] was −62% and the UACR [5, 13] was 14.2 mg/g. For the same compound, the UALB [5, 13] was 6.22 mg/L, the UCRE [5, 13] was 0.438 g/L and the “% UACR change vs Ctrl” value [5, 14] was −32%. The “% UACR change vs baseline” value [5, 14] was 23%, the UACR [5, 14] was 28.3 mg/g and the UALB [5, 14] was 14.79 mg/L. For the same compound, the UCRE [5, 14] was 0.523 g/L, the “% UACR change vs Ctrl” value [5, 15] was −59% and the “% UACR change vs baseline” value [5, 15] was −46%. For the same compound, the UACR [5, 15] was 15.5 mg/g, the UALB [5, 15] was 8.73 mg/L and the UCRE [5, 15] was 0.563 g/L. For the same compound, the “% UACR change vs Ctrl” value [5, 16] was −28%, the “% UACR change vs baseline” value [5, 16] was 31% and the UACR [5, 16] was 29.6 mg/g. For the same compound, the UALB [5, 16] was 12.38 mg/L, the UCRE [5, 16] was 0.418 g/L and the “% UACR change vs Ctrl” value [5, 17] was −63%. For the same compound, the “% UACR change vs baseline” value [5, 17] was −38%, the UACR [5, 17] was 13.9 mg/g and the UALB [5, 17] was 9.25 mg/L. For the same compound, the UCRE [5, 17] was 0.666 g/L, the “% UACR change vs Ctrl” value [5, 18] was −32% and the “% UACR change vs baseline” value [5, 18] was 46%. For the same compound, the UACR [5, 18] was 28.0 mg/g, the UALB [5, 18] was 15.18 mg/L and the UCRE [5, 18] was 0.542 g/L.

— patent US20230218563A1, “METHODS FOR TREATING OR PREVENTING CHRONIC KIDNEY DISEASE” (Arthrosi Therapeutics, Inc., priority 2020, published 2023)
